Assay results: article PMC10444862, “Using macromolecular electron densities to improve the enrichment of active compounds in virtual screening” (Communications Chemistry, 2023)

The compounds below were run against SARS-COV-2 3CLpro (having a P132H mutation, 3CLpro^P132H) (Severe acute respiratory syndrome coronavirus 2, UniProt P0DTD1, P3395H).
Assay type: biochemical

Question: `Cn1nccc1C(=O)N1CCC[C@H](n2c(=O)n(Cc3ccccc3)c3cccnc32)C1` [D15, Cn1nccc1C(=O)N1CCC[C@H](n2c(=O)n(Cc3ccccc3)c3cccnc32)C1] was tested. Which “Inhibition Rate ([Cpd.]=40 uM)” value did it give?
Answer: < 0.5

Question: How did the “Inhibition Rate ([Cpd.]=40 uM)” value turn out when `CC(=O)N1CCc2c(sc3c2c(=O)n(Cc2ccccc2)c(=O)n3Cc2cccc(C)c2)C1` [E13, CC(=O)N1CCc2c(sc3c2c(=O)n(Cc2ccccc2)c(=O)n3Cc2cccc(C)c2)C1] was run?
Answer: < 0.5

Question: Which “Inhibition Rate ([Cpd.]=40 uM)” value does the source give for `O=C(c1ccco1)N1CCC[C@H](n2c(=O)n(Cc3ccccc3)c3cccnc32)C1` [D18, O=C(c1ccco1)N1CCC[C@H](n2c(=O)n(Cc3ccccc3)c3cccnc32)C1] here?
Answer: < 0.5

Question: With `CC(C)C(NC(=O)c1ccccc1Cl)C(=O)OCC(=O)Nc1cccc(S(N)(=O)=O)c1` (centres unmarked) [D6, CC(C)C(NC(=O)c1ccccc1Cl)C(=O)OCC(=O)Nc1cccc(S(N)(=O)=O)c1] as the compound, how does the “Inhibition Rate ([Cpd.]=40 uM)” value read?
Answer: < 0.5

Question: With `Cc1cccc(Cn2c(=O)c(C(=O)NCc3ccco3)nn(-c3ccccc3F)c2=O)c1` [E8, Cc1cccc(Cn2c(=O)c(C(=O)NCc3ccco3)nn(-c3ccccc3F)c2=O)c1] as the compound, how does the “Inhibition Rate ([Cpd.]=40 uM)” value read?
Answer: 0.66
